Bridge positions count the residues as written; N and C are the ends. Peptide text beside a SMILES is read from it.
Assays:
[1] = molecular target: MMP-1 (Homo sapiens, UniProt P03956); assay: biochemical
Experimental: (§1) Inhibition of MMPs by RTD-1 was performed as described, incubating each enzyme with 0–100 μg/ml of RTD-1. IC50 values were calculated by GraphPad Prism 5.01 (GraphPad Software, San Diego, CA) utilizing a non-linear curve fit of log [inhibitor] versus response with variable slope.

[2] = molecular target: MMP-13 (Homo sapiens, UniProt P45452); assay: biochemical
Experimental: as §1

[3] = tested on: DA/OlaHsd rats with pristane-induced arthritis; assay: Pristane-induced arthritis (PIA), established disease (AS ≥ 3); type: in vivo, rat
Experimental: Female DA/OlaHsd (D blood group allele and Agouti, also known as Dark Agouti), rats were obtained from Harlan Laboratories (Indianapolis, IN). Animals were allowed to acclimate for 48–72 hours prior to experimental use. Animals were fed standard chow ad lib during a 12-hour day/night cycle. PIA was induced in 5–7 week old animals (90–100 gm) by intradermal injection of 250 μl pristane (Sigma) divided into 3–5 sites at the base of the tail. Animals were monitored daily and disease severity of each limb was scored 0–4 using the method of Brand et al.. The severity scores for all limbs of individual animals were totaled to give an individual’s arthritis severity score (AS) ranging from zero for normal animals to maximum disease score of sixteen. […] In three separate trials, treatment was also blinded to scorers. […] Treatment with saline (vehicle), RTD-1, or anti-arthritic agents was randomized and initiated when an animal first presented with an AS of 3 or more. RTD-1 was administered subcutaneously with doses ranging from 0.2 to 5.0 mg/kg in an injection volume of 0.5 ml at intervals ranging from once a day (qd) to once every seven days (q7d). MTX was administered at 0.25 mg/kg by intraperitoneal injection q3d. Etanercept was administered at 0.4 mg/kg by subcutaneous injection q3d.

[4] = in vivo; details: plasma
Experimental: Eight to 12-week old male Sprague Dawley rats (Harlan) were fitted with a surgically implanted jugular vein catheter for sequential blood collection (Culex NxT Automated In Vivo Sampling System; BASi, West Lafayette, IN), and monitored daily. RTD-1 dissolved in saline was injected subcutaneously at 5 mg/kg to 4 animals. Approximately 200 μl of blood was collected before peptide administration and at 0.25, 0.5, 1, 2, 4, 6, 8, 12, 18, 24, 30, 36, 48, 60, and 72 h after RTD-1 injection. Blood was collected into vials containing K3EDTA and plasma was collected after centrifugation. Plasma concentrations of RTD-1 were determined after solid phase extraction (SPE) by weak cation exchange (Oasis WCX, Waters, Milford, MA) and quantitation by C18 RP-UPLC, photodiode array (PDA) detection, and electrospray-ionization mass spectrometry (ESI-MS). Chromatography was performed on an Acquity H-class UPLC with an analytical PDA detector using Empower 3 software (Waters). Quantitative mass spectrometry was performed on post PDA eluent using a Micromass Quattro Ultima mass spectrometer with MassLynx 4.1 (Waters). Pharmacokinetic analysis was performed using parametric population modeling with maximum likelihood estimation via the EM algorithm with sampling (MLEM) as implemented in the ADAPT 5 (Version 5.0.49) PK/PD Systems Analysis Software (Biomedical Simulations Resource, University of Southern California).

[5] = tested on: anti-RTD-1 Ig; assay: RTD-1 immunogenicity analysis (dot immunoblot); type: in vivo, DA and Sprague Dawley rats; details: 8–42 s.c. injections of 5 mg/kg; serum or plasma
Experimental: Adult DA or Sprague-Dawley rats were challenged s.c. with 5 mg/kg RTD-1 every day (15–42 injections), or every other day (8 injections). Several animals were boosted 2 months later, prior to serum or plasma collection. Immune responses were analyzed by dot blot on nitrocellulose membranes as described in legend to the figure.

[6] = tested on: IL-6 production by fibroblast-like synoviocytes (FLS); assay: Expression of IL-6 by stimulated FLS; type: cell-based, DA rat; details: RTD-1 10 μg/ml; TNFα or IL-1β 3 or 10 ng/ml; 24 h; ELISA; n = 12, 3 experiments
Experimental: (§2) Fibroblast-like synoviocytes (FLS) were isolated by enzymatic digestion of the synovial tissue from DA rats with PIA as previously described. Cells were washed and suspended in DMEM supplemented with 10% fetal bovine serum (Gibco, Grand Island, NY), 30 mg/ml L-glutamine (Sigma), 250 μg/ml amphotericin B (Sigma), and […] gentamicin (Gibco). After overnight culture, non-adherent cells were removed and adherent cells were cultured to approximately 70–90% confluence and passaged following detachment with 0.25% trypsin-EDTA for 3 min at 37°C. All experiments were performed with FLS after at least four passages.
FLS were cultured in 12-well plates at 4–6 × 10^4 cells/well for 24 h (viability > 95% by trypan blue staining). Medium was replaced and FLS were incubated with TNFα or IL-1β at final concentrations of 3 or 10 ng/ml plus RTD-1 (10 μg/ml in 0.01% acetic acid (HOAc)) or vehicle alone. After 24 h incubation, FLS culture supernatants were removed, clarified by centrifugation, and analyzed for IL-6 by ELISA (Invitrogen, Carlsbad, CA).

[7] = tested on: DA-PIA-FLS; assay: FLS proliferation (CyQuant); type: cell-based, DA rat; details: RTD-1 0–30 μg/ml; 24 or 48 h in culture; DNA staining
Experimental: as §2
All assays were performed with ≥ 7 replicates.

[8] = tested on: FLS from PIA rats; assay: FLS invasion assay (Matrigel-coated transwell); type: cell-based; details: RTD-1 0.1 μg/ml; 24 h; 7 different rat DA FLS cell lines, mean
Experimental: as §2
FLS invasiveness was assayed in vitro using Matrigel-coated inserts in a transwell system (Becton, Dickinson and Company, Franklin Lakes, NJ) as previously described. Briefly, DA rat FLS (70–80% confluent) isolated as described above were suspended at 2.0 × 10^4 cells/well in serum-free DMEM. Cells were placed in the upper compartment of the Matrigel-coated inserts to which RTD-1 was added to final concentrations of 0.1, 1, or 10 μg/ml. The lower compartment contained complete medium with 10% FBS and plates were incubated at 37°C. […] The opposite side of the insert was stained with Crystal Violet (Sigma) and the total number of invading cells was counted at 100X magnification. […]

[9] = cited from earlier work
[10] = male, Sprague Dawley, rat, sc, 5 mg/kg
[11] = single 5 mg/kg s.c., male Sprague Dawley rats, n = 4, SPE, RP-UPLC/ESI-MS, 2-compartment population model

Chain of MMP-1 (P03956 100-469, species assumed): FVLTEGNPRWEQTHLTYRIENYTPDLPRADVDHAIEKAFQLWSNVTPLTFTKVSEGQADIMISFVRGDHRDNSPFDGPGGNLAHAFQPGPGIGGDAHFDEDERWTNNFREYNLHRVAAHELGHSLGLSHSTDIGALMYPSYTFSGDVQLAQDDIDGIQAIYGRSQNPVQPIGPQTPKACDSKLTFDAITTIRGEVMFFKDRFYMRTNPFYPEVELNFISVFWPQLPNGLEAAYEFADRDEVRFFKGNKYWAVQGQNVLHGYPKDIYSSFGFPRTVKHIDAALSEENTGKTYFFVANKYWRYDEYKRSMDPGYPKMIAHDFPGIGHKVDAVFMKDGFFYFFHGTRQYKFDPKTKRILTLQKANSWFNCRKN

With `CC[C@H](C)[C@@H]1NC(=O)[C@@H]2CSSC[C@H](NC(=O)[C@H](CCCNC(=N)N)NC(=O)[C@@H]3CSSC[C@H](NC1=O)C(=O)N[C@@H]([C@@H](C)O)C(=O)N[C@@H](CCCNC(=N)N)C(=O)NCC(=O)N[C@@H](Cc1ccccc1)C(=O)N3)C(=O)N[C@@H](CC(C)C)C(=O)N[C@H]1CSSC[C@H](NC(=O)[C@H](C(C)C)NC(=O)CNC(=O)[C@H](CCCNC(=N)N)NC(=O)[C@H](CCCNC(=N)N)NC1=O)C(=O)N[C@@H](CCCNC(=N)N)C(=O)N2` [RTD-1, rhesus θ-defensin 1] (cyclo(GFCRCLCRRGVCRCICTR); disulfide 3-16, 5-14, 7-12) the IC50 [1] was greater than 50 µM, the IC50 [2] was 11 ± 0.4 µM and the “complete resolution of disease (AS = 0), share of animals” value ([3]; 5 mg/kg s.c. daily for 11 days, 9 of 31 animals, saline 2.5% (1 of 40)) was 29%. The “reduction of mean arthritis severity score (AS) at the end of the observation period compared with vehicle controls” value ([3]; 5 mg/kg s.c. daily for 11 days, DA rats with PIA, AS ≥ 3 at start, 6 independent experiments) was 69%, the “disease resolution by dosing interval” value ([3]; 5 mg/kg s.c. daily, or once every 2, 3, or 5 days, n = 5 per group, single experiment) was “equivalent disease resolution” and the “rate of complete disease resolution on day 11, comparison with RA drugs” value ([3]; RTD-1 s.c. (4 of 16), MTX 0.25 mg/kg i.p. q3d (1 of 22), etanercept 0.4 mg/kg s.c. q3d (0 of 21), saline 0 of 19, 2 independent experiments) was 25%. The “therapeutic effect on AS compared to vehicle control” value ([3]; daily s.c. 0.2 mg/kg) was “no therapeutic effect”, the “reduction in AS compared to vehicle control” value ([3]; daily s.c. 1 mg/kg) was “modest, but not statistically significant reductions in AS” and the “reduction in AS compared to vehicle control by treatment day 3” value ([3]; daily s.c. 3 or 5 mg/kg, 2 independent experiments) was “significant (P ≤ 0.0015) and similar reductions in AS”. The clearance [4, 10] was 3.55 mL/h/kg, the half-life [4, 10] was 32.3 h and the distribution clearance [4, 11] was 22.3 mL/h/kg. The distribution half-life [4, 11] was 0.285 h, the “humoral response (anti-RTD-1 Ig) by dot immunoblot” value [5] was “No anti-RTD-1 Ig was detected” and the “reduction of IL-6 production by FLS” value [6] was 27.3–42.2%. For the same molecule, the “effect on FLS proliferation” value [7] was “dose-dependently suppressed FLS proliferation”, the “inhibition of FLS invasion” value [8] was 50% and the “stability in human plasma” value [9] was “highly stable”.
